# How the values were obtained:
# [1] = tested on: FluA Udorn replicon with PB2 N510T; type: cell-based, influenza A/H3N2/Udorn/72 in 293 T cells
# PB2long N510T mutant = type: binding, influenza A/Udorn/307/1972(H3N2)
smiles,measurement,setting,value
O=C(O)[C@H]1C2CCC(CC2)[C@@H]1Nc1nc(-c2c[nH]c3ncc(F)cc23)ncc1F [VX-787],"fold loss of cellular EC50, N510T vs WT replicon",[1],90 fold
same,"KD fold change, PB2long N510T",PB2long N510T mutant,90 fold

# Reference: publication PMC5571044 (Scientific Reports, 2017)
